As for `CSc1cnc2ccc(OC(c3cc(Cl)c(Cl)cn3)c3nnco3)cc2c1` (stereo not shown), the melting point (in general, the temperature, or range, at which the solid turns liquid) was in the range of 179 to 181 °C.
As for `CC(C)(O)c1coc(C(Oc2ccc3ncccc3c2)c2ccccc2)n1` (stereo not shown), the melting point lay in the range of 130 to 134 °C.
Under `CO/N=C/c1ccnc(C(Oc2cc(Cl)c3ncccc3c2)c2nnco2)c1` (stereo not shown) stands 166 to 168 °C.
`Fc1ccc(C(Oc2ccc3ncccc3c2)c2ncco2)nc1` (stereo not shown) showed a melting point of 104 to 110 °C.
Compound `Cc1cnc2ccc(OC(c3ccc(Br)cn3)c3ncco3)cc2c1` (stereo not shown) came in with a melting point of 136 to 139 °C.
On to `Fc1ccc(C(Oc2cc(Br)c3ncccc3c2)c2nnco2)nc1` (stereo not shown), for which the melting point was in the range of 176 to 182 °C.
`c1ccc(C(Oc2ccc3ncccc3c2)c2ncon2)cc1` (stereo not shown) came in with a melting point of 138 to 140 °C.
To `CCO/N=C/c1cc(OC(c2ccc(F)cn2)c2nnco2)cc2cccnc12` (stereo not shown) belongs 182 to 184 °C; to `Fc1ccc(C(Oc2cc(/C=C/C(F)(F)F)c3ncccc3c2)c2nnco2)nc1` (stereo not shown), 147 to 150 °C.
Regarding `CCO/N=C/c1cnc2ccc(OC(c3ccc(F)cn3)c3nnco3)cc2c1` (stereo not shown), the melting point lay in the range of 130 to 133 °C.
For the compound `CO/N=C/c1cnc2ccc(O[C@@H](c3ccc(F)cn3)c3nnco3)cc2c1`, the melting point fell in the range of 136 to 137 °C.
Under `CO/N=C/c1ccnc(C(Oc2cc(Br)c3ncccc3c2)c2nnco2)c1` (stereo not shown) stands 165 to 167 °C; under `Fc1ccc(C(Oc2ccc3ncccc3c2)c2nncs2)nc1` (stereo not shown), 92 to 94 °C.
With `Clc1ccc(C(Nc2ccc3ncccc3c2)c2nnco2)cc1` (stereo not shown), the melting point fell in the range of 151 to 152 °C.
Compound `CC(C)O/N=C/c1cc(OC(c2ccc(F)cn2)c2nnco2)cc2cccnc12` (stereo not shown) displayed a melting point of 158 to 159 °C.
For `c1ccc(C(Oc2ccc3nccnc3c2)c2nnco2)cc1` (stereo not shown), the melting point was in the range of 155 to 157 °C.
`c1ccc(C(Oc2ccc3ncccc3c2)c2nncs2)cc1` (stereo not shown) came in with a melting point of 149 to 151 °C.
As for `Cc1nnc(C(Oc2ccc3ncccc3c2)c2ccccc2)o1` (stereo not shown), the melting point was in the range of 114 to 116 °C.
In the case of `[O-][n+]1cc(F)ccc1C(Oc1ccc2c(ccc[n+]2[O-])c1)c1nnco1` (stereo not shown), the melting point was in the range of 224 to 226 °C.
`Cc1noc(C(Oc2ccc3ncccc3c2)c2ccc(F)cn2)n1` (stereo not shown) displayed a melting point of 79 to 81 °C.
In turn, `CCOC(=O)c1coc(C(Oc2ccc3ncccc3c2)c2ccccc2)n1` (stereo not shown) had a melting point of 103 to 107 °C.
Under `C#CCO/N=C/c1ccnc(C(Oc2cc(F)c3ncccc3c2)c2nnco2)c1` (stereo not shown) stands 128 to 130 °C.
`CC(C)O/N=C/c1cnc2ccc(OC(c3ccc(F)cn3)c3nnco3)cc2c1` (stereo not shown) returned a melting point of 112 to 115 °C.
Regarding `CCO/N=C/c1ccnc(C(Oc2cc(F)c3ncccc3c2)c2nnco2)c1` (stereo not shown), the melting point is 168 to 171 °C.
As to `[O-][n+]1cccc2cc(OC(c3ccc(F)cn3)c3nnco3)ccc21` (stereo not shown), the melting point lay in the range of 176 to 177 °C.
Compound `Fc1ccc(C(Oc2cccc3ncccc23)c2nnco2)nc1` (stereo not shown) yielded a melting point of 198 to 200 °C.
For `c1ccc(C(Sc2ccc3ncccc3c2)c2nnco2)cc1` (stereo not shown), the melting point fell in the range of 126 to 130 °C.
Under `Fc1ccc(C(Oc2ccc3ncc(/C=N/OCC(F)(F)F)cc3c2)c2nnco2)nc1` (stereo not shown) stands 118 to 120 °C.
In turn, `Cc1cc(C(Oc2ccc3ncccc3c2)c2ccccc2)no1` (stereo not shown) came in with a melting point of 108 to 110 °C.
As to `c1ccc(C(Oc2ccc3ncccc3c2)c2ncco2)cc1` (stereo not shown), the melting point lay in the range of 122 to 124 °C.
The compound `CC(C)O/N=C/c1ccnc(C(Oc2cc(F)c3ncccc3c2)c2nnco2)c1` (stereo not shown) yielded a melting point of 126 to 129 °C.
The compound `Fc1ccc(C(Oc2ccc3ncccc3c2)c2ncon2)nc1` (stereo not shown) gave a melting point of 115 to 119 °C.
On to `c1ccc(C(Oc2ccc3ncccc3c2)c2ccon2)cc1` (stereo not shown), for which the melting point was in the range of 126 to 128 °C.
`CO/N=C/c1cnc2ccc(OC(c3ccc(F)cn3)c3nnco3)c(Br)c2c1` (stereo not shown) showed a melting point of 172 to 173 °C.
`FC(F)Oc1ccc(C(Oc2ccc3ncccc3c2)c2nncs2)nc1` (stereo not shown) showed a melting point of 60 to 62 °C.
`CO/N=C/c1ccnc(C(Oc2cc(F)c3ncccc3c2)c2nnco2)c1` (stereo not shown) displayed a melting point of 174 to 177 °C.
`Fc1ccc(C(Oc2ccc3ncccc3c2)c2ncno2)nc1` (stereo not shown) had a melting point of 100 to 104 °C.
Under `c1ccc(C(Oc2ccc3ncccc3c2)c2ccccn2)cc1` (stereo not shown) stands 71 to 73 °C; under `c1ccc(C(Nc2ccc3ncccc3c2)c2nnco2)cc1` (stereo not shown), 161 to 163 °C.
On to `Cc1cnc2ccc(OC(c3ccc(C#N)cn3)c3ncco3)cc2c1` (stereo not shown), for which the melting point lay in the range of 168 to 172 °C.
For `CO/N=C/c1cc(OC(c2ccc(F)cn2)c2nnco2)cc2cccnc12` (stereo not shown), the melting point lay within 164 to 166 °C.
Consider `Brc1cnc2ccc(OC(c3ccccc3)c3ncco3)cc2c1` (stereo not shown), for which the melting point was 136 to 137 °C.
In the case of `c1ccc(C(Oc2ccc3ncccc3c2)c2ccco2)cc1` (stereo not shown), the melting point is 215 °C (dec.).
With `Clc1ccc(C(Nc2ccc3ncc(Br)cc3c2)c2nnco2)nc1` (stereo not shown), the melting point was in the range of 214 to 217 °C.
As to `Fc1ccc(C(Oc2cnc3ncccc3c2)c2nnco2)nc1` (stereo not shown), the melting point is 154 to 158 °C.
`c1ccc(C(Oc2cnc3ccccc3c2)c2nnco2)cc1` (stereo not shown) yielded a melting point of 108 to 110 °C.
`CO/N=C/c1cnc2ccc(OC(c3ccc(F)cn3)c3nnco3)cc2c1` (stereo not shown) displayed a melting point of 148 to 152 °C.
`c1ccc(C(Oc2ccc3ncccc3c2)c2cnco2)cc1` (stereo not shown) registered a melting point of 110 to 113 °C.
Under `Cn1nnnc1C(Oc1ccc2ncccc2c1)c1ccccc1` (stereo not shown) stands 111 to 113 °C.
For the compound `CO/N=C/c1cnc2ccc(O[C@H](c3ccc(F)cn3)c3nnco3)cc2c1`, the melting point is 136 to 138 °C.
In the case of `c1ccc(C(Oc2cc3cccnc3cn2)c2nnco2)cc1` (stereo not shown), the melting point was 136 to 139 °C.
The compound `Brc1c(OC(c2ccccc2)c2ncon2)ccc2ncccc12` (stereo not shown) gave a melting point of 53 to 55 °C.

Values taken from patent US20200275661A1 (published 2020).
